Values quoted from earlier work, collected in patent US7271157B2, “A1 adenosine receptor agonists” (CV Therapeutics, Inc., priority 2004, dated 2007).

Key:
A1-adenosine receptor = target: T1, A1-adenosine receptor (Homo sapiens, UniProt P30542)
T1 sequence (P30542 1-326): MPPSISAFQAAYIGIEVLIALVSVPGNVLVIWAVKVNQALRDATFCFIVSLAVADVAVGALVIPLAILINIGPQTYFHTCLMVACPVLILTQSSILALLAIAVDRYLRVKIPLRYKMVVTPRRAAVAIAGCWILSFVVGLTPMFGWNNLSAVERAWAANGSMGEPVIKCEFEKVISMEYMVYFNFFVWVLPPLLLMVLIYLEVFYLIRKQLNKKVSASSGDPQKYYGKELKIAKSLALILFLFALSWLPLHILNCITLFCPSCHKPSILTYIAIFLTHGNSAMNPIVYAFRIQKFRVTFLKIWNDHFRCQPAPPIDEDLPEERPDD

seizures induced by DMCM = conditions: experimental models of epilepsy

SMILES: OC1CCCC1Nc1ncnc2c1ncn2[C@@H]1O[C@H](CSc2ccccc2F)[C@@H](O)[C@H]1O (mixture of isomers) [(4S,5S,2R,3R)-5-[(2-fluorophenylthio)methyl]-2-{6-[(2-hydroxycyclopentyl)amino]-purin-9-yl}oxolane-3,4-diol]
- A1-adenosine receptor agonist character and selectivity (A1-adenosine receptor): highly selective partial A1-adenosine receptor agonist

SMILES: Nc1ncnc2c1ncn2[C@@H]1O[C@H](CO)[C@@H](O)[C@H]1O [adenosine]
- half-life: less than 10 sec

SMILES: Cc1ccccc1CNc1ncnc2c1ncn2[C@@H]1O[C@H](CO)[C@@H](O)[C@H]1O [metrifudil]
- anticonvulsant activity against DMCM-induced seizures (seizures induced by DMCM): potent anticonvulsant
